Data set [1] addresses T1, Calmodulin-sensitive adenylate cyclase (Bacillus anthracis, UniProt P40136).
T1 sequence (P40136 whole entry): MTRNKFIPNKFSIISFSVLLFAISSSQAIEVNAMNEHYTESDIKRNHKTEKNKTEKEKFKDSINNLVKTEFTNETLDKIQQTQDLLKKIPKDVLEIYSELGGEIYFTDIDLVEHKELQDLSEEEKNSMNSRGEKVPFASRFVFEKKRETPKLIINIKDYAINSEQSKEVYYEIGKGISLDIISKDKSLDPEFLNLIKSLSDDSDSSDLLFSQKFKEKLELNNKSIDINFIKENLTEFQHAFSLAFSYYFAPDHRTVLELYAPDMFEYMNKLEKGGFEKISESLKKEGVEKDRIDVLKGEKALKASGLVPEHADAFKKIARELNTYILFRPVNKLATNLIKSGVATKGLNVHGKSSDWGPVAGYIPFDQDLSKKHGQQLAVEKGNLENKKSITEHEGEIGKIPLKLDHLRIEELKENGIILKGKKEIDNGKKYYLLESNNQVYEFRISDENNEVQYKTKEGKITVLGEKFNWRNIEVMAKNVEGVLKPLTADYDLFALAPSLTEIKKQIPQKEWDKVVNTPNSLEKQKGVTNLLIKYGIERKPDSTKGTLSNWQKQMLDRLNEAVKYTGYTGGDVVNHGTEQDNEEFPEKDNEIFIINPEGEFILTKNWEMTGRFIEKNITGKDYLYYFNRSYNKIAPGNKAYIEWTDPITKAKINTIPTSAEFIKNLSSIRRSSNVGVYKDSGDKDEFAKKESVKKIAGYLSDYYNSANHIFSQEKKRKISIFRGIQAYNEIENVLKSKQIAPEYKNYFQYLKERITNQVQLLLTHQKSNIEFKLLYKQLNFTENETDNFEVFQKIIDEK
In kind it is cell-based, RAW264.7.

Data set [2] is described as follows: Cytotoxic activity against human GenM-T01 cells after 24 hrs. In kind it is cell-based. As to conditions: genm-t01, 24 h.
Data set [3] relates to Salmonella typhimurium. As to the kind of experiment: Mutagenicity in Salmonella typhimurium TA98 at 0.975 ug/mL to 1000 ug/mL after 48 hrs in presence of liver S9 fraction by Ames test. In kind it is toxicity, organism-based. The following applies: salmonella enterica subsp. enterica serovar typhimurium, s9, 48 h.
Data set [4] can be described thus: Genotoxicity against human GenM-T01 cells assessed as induction of GFP expression after 48 hrs by GADD45alpha-GFP assay. In kind it is toxicity, cell-based. The following applies: genm-t01, 48 h.
Data set [5] relates to Salmonella typhimurium. The data set is described as follows: Mutagenicity in Salmonella typhimurium TAMix at 0.975 ug/mL to 1000 ug/mL after 48 hrs in absence of liver S9 fraction by Ames test. In kind it is toxicity, organism-based. The following applies: salmonella enterica subsp. enterica serovar typhimurium.
A short description of data set [6]: Cytotoxic activity against human GenM-C01 cells after 48 hrs. The following applies: genm-c01, 48 h. In kind it is cell-based.
Data set [7] can be described thus: Genotoxicity against human GenM-T01 cells assessed as induction of GFP expression after 24 hrs by GADD45alpha-GFP assay. In kind it is toxicity, cell-based. As to conditions: genm-t01, 24 h.
The subject of data set [8] is Salmonella typhimurium. As to the kind of experiment: Mutagenicity in Salmonella typhimurium TA98 at 0.975 ug/mL to 1000 ug/mL after 48 hrs in absence of liver S9 fraction by Ames test. The following applies: salmonella enterica subsp. enterica serovar typhimurium. In kind it is toxicity, organism-based.
The nature of data set [9]: Cytotoxic activity against human GenM-T01 cells after 48 hrs. In kind it is cell-based. The following applies: genm-t01, 48 h.
The subject of data set [10] is Salmonella typhimurium. The data set is described as follows: Mutagenicity in Salmonella typhimurium TAMix at 0.975 ug/mL to 1000 ug/mL after 48 hrs in presence of liver S9 fraction by Ames test. In kind it is toxicity, organism-based. The following applies: salmonella enterica subsp. enterica serovar typhimurium, s9, 48 h.

Regarding `O=C(O)c1cccc(NC(=O)c2ccccc2)c1`, the IC50 in [1] was over 100 µM.

Regarding `COC(=O)c1cccc(NC(=O)c2cccc(-c3ccccc3)c2)c1`, the IC50 in [1] came to 19 µM.

On to `COC(=O)c1cccc(NC(=O)c2cccc3c2C(=O)c2ccccc2-3)c1`, for which the IC50 in [1] was found to be 11 µM.

As for `Nc1ccc(NC(=O)c2cccc3c2C(=O)c2ccccc2-3)c(C(=O)O)c1`, in data set [1], 80 µM corresponded to half-maximal inhibition (IC50).

Compound `Nc1ccc(NC(=O)c2cccc3c2C(=O)c2ccccc2-3)cc1C(=O)O` came in with an IC50 in data set [1] of 6.08 µM. This IC50 lies about 13-fold lower than the previous one.

For the compound `O=C(O)c1cccc(NC(=O)c2cccc3c2C(=O)c2ccccc2-3)c1Cl`, it took 9.21 µM to reach half-maximal inhibition in data set [1] (IC50).

For `COC(=O)c1cc(NC(=O)c2cccc3c2C(=O)c2ccccc2-3)ccc1O`, the IC50 in data set [1] is over 100 µM.

The compound `CSc1cccc(NC(=O)c2cccc3c2C(=O)c2ccccc2-3)c1` yielded an IC50 in data set [1] of 26 µM. This lies in the double-digit micromolar range.

In turn, `O=C(Nc1cccc(OC(F)(F)F)c1)c1cccc2c1C(=O)c1ccccc1-2` returned an IC50 in data set [1] of 6.8 µM.

The compound `O=C(NO)c1cccc(NC(=O)c2cccc3c2C(=O)c2ccccc2-3)c1` registered an IC50 in [1] of 12.9 µM.

Take `O=C(O)c1cccc(NC(=O)c2cccc3c2C(=O)c2ccccc2-3)c1`: the MTC in [2], in [4], in [6], in data set [7] and in data set [9] was 62.5 µg/mL in each case. Besides, the Activity entry in the data set with Salmonella typhimurium [3], in the data set on Salmonella typhimurium [5], with Salmonella typhimurium [8] and with Salmonella typhimurium [10] was “Non-toxic” each time.

These data come from ChEMBL document CHEMBL2202953, “Structure-based redesign of an edema toxin inhibitor” (Bioorg Med Chem, 2012).
